Holding throughout (type): cell-based
Assay [1] has as its system non-tumoral MRC-5 human fibroblast. The assay is described as follows: MTT viability assay, non-tumoral human fibroblasts. The following applies: MRC-5 human fibroblasts, 3 hours incubation with drug, 24 hours after removal. Here is the method: (§1) The cytotoxic activity of theses complexes was evaluated against 6 different cell lines, using the MTT assay (3-(4,5-dimethylthiazol-2-yl)-2,5-diphenyltetrazolium bromide assay) (Mosmann, T. J. Immunol. Methods, 1983, 65, 55-63) to measure the cell viability.
(§2) Cell lines were routinely propagated in 75 cm^2 tissue culture flasks (SARSTEDT, Leicester, U.K.), in a humidified atmosphere of 5% CO2 in air at 37° C., and were trypsinized and harvested into new medium every 2-4 days, just before confluence. Cell lines were cultured for a minimum of two passages after thawing prior to experimentation.
The […] cells, secondary human lung fibroblasts, were purchased at ECACC. The cells were grown in MEM with Earls' Salt and L-glutamine (Gibco, ref. 61100-053), supplemented with 10% fetal bovine serum (FBS) and 1% neomycin.
(§3) This assay is based on the capacity of mitochondrial dehydrogenase enzymes in living cells to convert the yellow water soluble substrate (MTI) into a dark blue product which is quantified by spectrophotometric means. Briefly, exponentially growing cells were trypsinized, dispensed in sixplicates into 96-well tissue culture plates and allowed to attach overnight. The next day the cells were treated with various concentrations of the drug, ranging from 1 to 1000 μM. By addition of an adequate volume of a freshly prepared DMSO solution of the compound to the medium, the desired test concentrations were obtained. For. each test concentration and for the control which contained the corresponding amount of DMSO, 6 wells were used. After an incubation period of 3 hours the cells were carefully washed (twice) with phosphate buffer saline (PBS) and 100 μl of medium were added. The cells were incubated for 24 hours and 10 μl of a MTT solution (5 mg/ml) were added to each well. The tetrazolium/formazan reaction was allowed to proceed for 4 hours and the medium was carefully removed. The dark blue formazan crystals were dissolved by adding 150 μl of DMSO and agitating for 15 minutes in a plate shaker. The optical density was measured at […] using a 96-well multiscanner autoreader. The percentage of survival was calculated using the formula: % survival=live cell number [test]/live cell number [control]×100. The IC50 values were calculated by nonlinear regression analysis using the graphed Prism software (GraphPad Software, Inc., San Diego, Calif.) and are compiled in tables 2-4.
(§4) Using the colorimetric mitochondrial function-based MTT viability assay, we examined the effects of molybdenum (II) complexes against 6 different cell lines, by measuring the cellular proliferation at 8 different concentrations ranging from 1 to 1000 μM, 24 hours after removal of the drug. The IC50 values were calculated from dose-response curves obtained by nonlinear regression analysis. FIG. 4 represent and compare dose-response curves obtained for several molybdenum compounds against the Ehrlich ascites mouse cell line.

Assay [2] has as its system Ehrlich ascites mouse tumor cell line. The assay is described as follows: MTT viability assay, Ehrlich ascites cells. The following applies: Ehrlich ascites mouse cancer cells, 3 hours incubation with drug, read 24 hours after removal of the drug. Here is the method:
as §1, §2
The Ehrlich ascites mouse tumor cell line was purchased at ECACC (European Collection of Cell culture) and propagated in NCTC-135 medium (Sigma, ref. N3262) 2 mM in L-glutamine, supplemented with 10% heat-inactivated fetal bovine serum (FBS) and 1% penicillin/streptomycin.
as §3, §4

The test system of assay [3] is HT-29 colorectal human cell line. In words: MTT viability assay, HT-29 cells. The following applies: 3 hours incubation with drug, 24 hours after removal, read-out: IC50 VALUE, Human tumoral cell lines, Colon HT-29. Here is the method: as §1, §2
(§5) The tumoral MKN45 gastric and HT-29 colorectal human cell lines were purchased at ECACC. […]
(§6) This assay is based on the capacity of mitochondrial dehydrogenase enzymes in living cells to convert the yellow water soluble substrate (MTI) into a dark blue product which is quantified by spectrophotometric means. […] The optical density was measured at […] using a 96-well multiscanner autoreader. The percentage of survival was calculated using the formula: % survival=live cell number [test]/live cell number [control]×100. The IC50 values were calculated by nonlinear regression analysis using the graphed Prism software (GraphPad Software, Inc., San Diego, Calif.) and are compiled in tables 2-4. […]

The subject of assay [4] is GP-220 gastric human cell line. The assay is described as follows: MTT viability assay, GP-220 cells. The note with it: 3 hours incubation with drug, 24 hours after removal, read-out: IC50 VALUE, Human tumoral cell lines, Gastric GP-220. How it is done:
as §1, §2
(§7) The tumnoral GP-202 and GP-220 gastric human cell lines were established at IPATIMUP (Instituto de Patologia e Imunologia Molecular da Universidade do Porto). […]
as §6
Background: Formazan colour is commonly taken as a measure of viable cells.

Assay [5] deals with MKN45 gastric human cell line. The assay is described as follows: MTT viability assay, MKN-45 cells. The note with it: 3 hours incubation with drug, 24 hours after removal, read-out: IC50 VALUE, Human tumoral cell lines, Gastric MKN-45. Here is the method: as §1, §2, §5, §6
Assay [6] has as its system GP-202 gastric human cell line. The assay is described as follows: MTT viability assay, GP-202 cells. The following applies: 3 hours incubation with drug, 24 hours after removal, read-out: IC50 VALUE, Human tumoral cell lines, Gastric GP-202. How it is done:
as §1, §2, §7, §6

This passage reports IC50 results from patent publication US20080311189A1, “Compositions Comprising Organometallic Molybdenum Compounds For Treating Cancer” (priority 2004, published 2008).

As usually defined, the IC50 is the concentration at which inhibition is half-maximal. Consider “[(η^5-Ind)Mo(CO)2(4,7-Me2-1,10-phen)]BF4 [Compound 7]”, for which the IC50 came out at 64.4 ± 1.1 µM in assay [1] and 29.5 ± 1 µM in assay [2].
In the case of “[(η^5-Ind)Mo(CO)2(4,4′-Ph2-2,2′-bpy)]BF4 [Compound 2]”, in assay [2], the IC50 was 13.7 ± 1.1 µM.
Turning to “(η^3-C3H5)Mo(CO)2(2,3-Me2-p-tolilDAB)Br [Compound 23]”, the results for the IC50 in assay [1] and in assay [2] were 104 ± 1.1 µM and 59.1 ± 1.1 µM, respectively.
As for “[(η^5-Ind)Mo(CO)2{5,6-Ph2-3-(2-py)-1,2,4-Tz}]BF4 [Compound 9]”, inhibition in assay [1] was half-maximal at 13.4 ± 1 µM (IC50).
For the substance “[(η^5-Ind)Mo(CO)2(NCMe)2]BF4 [Compound 18]”, the IC50 in assay [2] came out at 56.7 ± 1.7 µM.
For the substance “(η^3-C3H5)Mo(CO)2(4,7-diphenyl-1,10-phen)Br [Compound 25]”, the 50% inhibitory concentration (IC50) in assay [1] is 12.1 ± 1.1 µM; in assay [2], 12.5 ± 1.2 µM.
The corresponding values for “[(η^5-Ind)Mo(CO)2(CYDAB)]BF4 [Compound 4]” are 75 ± 1.1 µM and 140.3 ± 1.2 µM.
“[(η^5-Cp)Mo(CO)2trithiane]BF4 [Compound 19]”: the 50% inhibitory concentration (IC50) in assay [2] amounted to 142.1 ± 1.1 µM.
For the substance “[(η^5-Ind)Mo(CO)2(1,4,7,10-tetrt)]BF4 [Compound 17]”, the values for the IC50 in assay [1] and in assay [2] were 213.5 ± 1.1 µM and 19.9 ± 1.1 µM, respectively.
The corresponding values for [(η^5-Cp)Mo(CO)2tten]BF4 [Compound 20] are 139.8 ± 1.2 µM and 138.9 ± 1.2 µM.
In the case of “(η^3-C3H5)Mo(CO)2(1,10-phen)Br [Compound 24]”, the IC50 in assay [2] was determined as 7.3 ± 1 µM.
[(η^5-Cp)Mo(CO)2dppe]BF4 [Compound 21]: the IC50 in assay [1] was determined as 24 ± 1 µM; in assay [2], 20 ± 1.1 µM.
On to “[(η^5-Cp)Mo(CO)2{5,6-Ph2-3-(2-py)-1,2,4-Tz}]BF4 [Compound 22]”, for which the IC50 was determined as 68.9 ± 1.1 µM in assay [1] and 105 ± 1.2 µM in assay [2].
The corresponding values for [(η^5-Ind)Mo(CO)2tten]BF4 [Compound 16] are 91 ± 1.1 µM and 8.4 ± 1.1 µM.
As to “[(η^5-Ind)Mo(CO)2(4,7-Ph2-1,10-phen)]BF4 [Compound 6]”, the IC50 in assay [1] stood at 14.9 ± 1 µM; in assay [3], 6.6 ± 1 µM; in assay [4] it was 1.8 ± 1.1 µM; in assay [5] it was 4.6 ± 1.1 µM; in assay [6], 4.2 ± 1.1 µM; in assay [2], 5.7 ± 1 µM.
Take “[(η^5-Ind)Mo(CO)2{1,2-Ph(NH2)2}]BF4 [Compound 13]”: the results for the IC50 in assay [1] and in assay [2] were 73.7 ± 1.1 µM and 67.6 ± 1.2 µM, respectively.
For “[(η^5-Ind)Mo(CO)2(p-tolilDAB)]BF4 [Compound 3]” the same measures were 84.1 ± 1 µM and 6.6 ± 1 µM.
For “[(η^5-Ind)Mo(CO)2trithiane]BF4 [Compound 15]” the same measures were 136.6 ± 1 µM and 20.7 ± 1 µM.
For [(η^5-Ind)Mo(CO)2phen]BF4 [Compound 5] the same measures were 73.3 ± 1.1 µM and 32.9 ± 1 µM.
Regarding “[(η^5-Ind)Mo(CO)2(2,2′-biq)]BF4 [Compound 8]”, the IC50 in assay [1] amounted to 13 ± 1 µM; in assay [3], 13.3 ± 1.1 µM; in assay [4], 2.7 ± 1 µM; in assay [5], 4.4 ± 1 µM; in assay [6], 5 ± 1.1 µM; in assay [2], 35 ± 1.1 µM.
For the substance [(η^5-Ind)Mo(CO)2bpy]BF4 [Compound 1], the IC50 was 143.2 ± 1.1 µM in assay [1] and 95.9 ± 1.1 µM in assay [2].
The corresponding values for [(η^5-Ind)Mo(CO)2dppe]BF4 [Compound 14] are 20.3 ± 1.1 µM and 5.8 ± 1.1 µM.
